For 1 cell line, relative viability results are on record in the supplement of paper PMC10307832.

Common to all, as to test: relative viability (nuclei count vs DMSO), 5 days (fraction); higher = more cells survive
Compound in the assay “OSI-027 + Palbociclib”: COc1cccc2cc(-c3nc([C@H]4CC[C@H](C(=O)O)CC4)n4ncnc(N)c34)[nH]c12 [OSI-027] + CC(=O)c1c(C)c2cnc(Nc3ccc(N4CCNCC4)cn3)nc2n(C2CCCC2)c1=O [Palbociclib] (partner 0.5 µM)
Summed up:
(§1)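 Lung cancer cell lines were pin-tool dosed in 1536-well plates on the day after seeding, with either a lone drug or a fixed anchor-drug dose plus five library-drug doses (not always all listed) in √10 steps. Nuclei were counted on 4× images after 5 days. Relative viability is the ratio of treated-well to vehicle-well nuclei counts, with each value a median of duplicate plates.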

Compound in the assay “OSI-027 + Lapatinib”: COc1cccc2cc(-c3nc([C@H]4CC[C@H](C(=O)O)CC4)n4ncnc(N)c34)[nH]c12 [OSI-027] + CS(=O)(=O)CCNCc1ccc(-c2ccc3ncnc(Nc4ccc(OCc5cccc(F)c5)c(Cl)c4)c3c2)o1 [Lapatinib] (partner 2 µM)
An outline of the steps: as §1

Compound in the assay “OSI-027 + Olaparib”: COc1cccc2cc(-c3nc([C@H]4CC[C@H](C(=O)O)CC4)n4ncnc(N)c34)[nH]c12 [OSI-027] + O=C(c1cc(Cc2n[nH]c(=O)c3ccccc23)ccc1F)N1CCN(C(=O)C2CC2)CC1 [Olaparib] (partner 8 µM)
Summed up: as §1

Compound in the assay “Alpelisib + Luminespib”: Cc1nc(NC(=O)N2CCC[C@H]2C(N)=O)sc1-c1ccnc(C(C)(C)C(F)(F)F)c1 [Alpelisib] + CCNC(=O)c1noc(-c2cc(C(C)C)c(O)cc2O)c1-c1ccc(CN2CCOCC2)cc1 [Luminespib] (partner 0.01 µM)
Summed up: as §1

For UMC-11, the relative viability with OSI-027 + Palbociclib (first compound 0.01 µM) came out at 0.314; with OSI-027 + Palbociclib (first compound 0.03162 µM), 0.371; with OSI-027 + Palbociclib (first compound 0.1 µM), 0.307; with OSI-027 + Palbociclib (first compound 0.3162 µM), 0.301; with OSI-027 + Palbociclib (first compound 1 µM), 0.314; with OSI-027 + Lapatinib (first compound 0.01 µM), 0.934. Further, the relative viability in the assay with OSI-027 + Lapatinib (first compound 0.03162 µM) was 0.939; with OSI-027 + Lapatinib (first compound 0.1 µM) it was 0.805; with OSI-027 + Lapatinib (first compound 0.3162 µM), 0.693; with OSI-027 + Lapatinib (first compound 1 µM), 0.506; in the assay with OSI-027 + Olaparib (first compound 0.01 µM), 0.388; with OSI-027 + Olaparib (first compound 0.03162 µM), 0.42. Besides, the relative viability in the assay with OSI-027 + Olaparib (first compound 0.1 µM) was 0.31; with OSI-027 + Olaparib (first compound 0.3162 µM), 0.349; with OSI-027 + Olaparib (first compound 1 µM) it was 0.291; in the assay with Alpelisib + Luminespib (first compound 0.04 µM) it was 1.04; with Alpelisib + Luminespib (first compound 0.1265 µM) it was 1.05; with Alpelisib + Luminespib (first compound 0.4 µM), 1.06. The values for the relative viability with Alpelisib + Luminespib (first compound 1.265 µM) and with Alpelisib + Luminespib (first compound 4 µM) were 0.766 and 0.729, respectively.
